Converted amounts (≈) assume the structure as drawn. The source made the active and inactive calls. The calls are words filed in the database; no cut-off is given here.

The subject of the first test is KB. Nature of the test: Cytotoxicity against human KB cells by MTT assay. The class given is functional, cell-based. On the technique in general: Tetrazolium dyes change colour on reduction, which living cells bring about.
As for `COc1cc2c(c(O)c1C(CC(C)C)c1c(OC/C=C(\C)CCC=C(C)C)cc(O)c(C(=O)c3ccccc3)c1O)C(=O)c1c(O)cc(C)cc1C2=O` (stereo not given), the result was inactive.

`COc1cc2c(c(O)c1C(CC(C)CCC=C(C)C)c1c(OC/C=C(\C)CCC=C(C)C)cc(O)c(C(=O)c3ccccc3)c1O)C(=O)c1c(O)cc(C)cc1C2=O` (stereo not given): the result was inactive.

As usually defined, the EC50 is the concentration needed to bring the measured effect to its halfway point. Low values mean a more potent agent, high ones a less potent agent. As to `CC(C)=CCC/C(C)=C/Cc1c(O)cc(O)c2oc3cc(O)c(CC=C(C)C)c(O)c3c(=O)c12` [CRATOXYARBORENONE A], it took 4.3 µg/mL (≈ 9.26 µM) to reach a half-maximal effect (EC50).

Molecule `CC(C)=CCc1c(O)cc2oc3c(O)cc(O)c(CC=C(C)C)c3c(=O)c2c1O` [CRATOXYARBORENONE B] gave an EC50 of 1 µg/mL (≈ 2.52 µM).

`COc1cc(OC)c2oc3cc(O)c(CC=C(C)C)c(O)c3c(=O)c2c1CC=C(C)C` [CRATOXYARBORENONE C] returned an EC50 of 1.5 µg/mL (≈ 3.53 µM).

Turning to `C=C(C)C1Cc2c(cc3oc4c(O)c(O)c(O)c(CC=C(C)C)c4c(=O)c3c2O)O1` (stereo not given) [CRATOXYARBORENONE D], the EC50 amounted to 1.7 µg/mL (≈ 4.14 µM).

For `COc1c(O)cc2c(=O)c3c(O)cc(O)c(CC=C(C)C)c3oc2c1CC=C(C)C` [CRATOXYARBORENONE E], the response was half-maximal at 4.3 µg/mL (≈ 10.5 µM) (EC50).

The molecule `COc1ccc(O)c2c(=O)c3ccc(O)cc3oc12` [CRATOXYARBORENONE F] gave a concentration for a half-maximal effect (EC50) of 4.1 µg/mL (≈ 15.9 µM).

Turning to `COc1cc2cc3c(c(O)c2c2c1C=CC(C)(C)O2)C(=O)CC(C)(O)C3` (stereo not given) [VISMIONE B], the EC50 was determined as 1.3 µg/mL (≈ 3.67 µM). This EC50 lies about 3.2-fold lower than the previous one.

For a further test, the system named is P388. Put plainly: In vivo antitumor activity against mouse P388 cells at 75 mg/kg, ip. The class given is functional, organism-based. Set-up: dose 75 mg/kg.
Regarding `COc1cc(OC)c2oc3cc(O)c(CC=C(C)C)c(O)c3c(=O)c2c1CC=C(C)C` [CRATOXYARBORENONE C], the result was inactive.

Values taken from ChEMBL document CHEMBL1159331, “Cytotoxic prenylated xanthones and the unusual compounds anthraquinobenzophenones from Cratoxylum sumatranum” (J Nat Prod, 2002).
